Reference: US9102607B2 (priority 2009, dated 2015)
Converted amounts (≈) assume the structure as drawn. “And” between values parts separate entries of the source, which are not always exact repeats. Equal values may be shown once. Read-outs that look alike come from different tables or passages of the source.

Experiments:
P. acnes CIP53.117 = experiment: microbe, parasite or virus in culture; assay type: cell-based, Propionibacterium acnes
TPA-induced ear oedema = experiment: Anti-inflammatory activity after a single topical administration in TPA-induced ear oedema; assay type: in vivo, mouse; details: for anti-inflammatory effect (in words) / Inhibition vs TPA (%) / Ear oedema Mean: single topical application; for anti-inflammatory effect compared to BPO 5% (in words): compared to BPO at 5%; for Inhibition vs TPA (%): T6 h; for Ear oedema Mean: ear thickness at T6 h
Procedure: the aim is to evaluate the anti-inflammatory activity of the peroxides by measuring the thickness of mouse ear after TPA topical application. The anti-inflammatory activity is defined as a inhibition percentage of the TAP-induced ear oedema.
An oedema was induced by a single topical application of 20 μl of TPA dissolved in acetone at 0.01%.
Then a single topical application of tested compounds dissolved in TPA solution.
Ear thickness was measured at T6 h.
Results are expressed in percentages based on the inhibition on the oedema induced by the TPA application.
Benzoyl peroxide (BPo) was tested 2 times as a reference peroxide.

[1] = Cutibacterium acnes, CIP53, 72 h
[2] = compound 1% in TPA 0.01% solution
[3] = compound 2.5% in TPA 0.01% solution
[4] = compound 5% in TPA 0.01% solution

| SMILES | MIC (P. acnes CIP53.117; [1]) | anti-inflammatory effect (in words) (TPA-induced ear oedema; 1%, 2.5% and 5%) | anti-inflammatory effect compared to BPO 5% (in words) (TPA-induced ear oedema) | Inhibition vs TPA (%) (TPA-induced ear oedema; [2]) | Ear oedema Mean (TPA-induced ear oedema; [2]) | Inhibition vs TPA (%) (TPA-induced ear oedema; [3]) | Ear oedema Mean (TPA-induced ear oedema; [3]) | Inhibition vs TPA (%) (TPA-induced ear oedema; [4]) | Ear oedema Mean (TPA-induced ear oedema; [4]) | MIC (P. acnes CIP53.117) | anti-inflammatory effect (in words) (TPA-induced ear oedema; at 5%) |
| --- | --- | --- | --- | --- | --- | --- | --- | --- | --- | --- | --- |
| CC(C)OC(=O)Oc1ccccc1C(=O)OOC(=O)c1ccccc1OC(=O)OC(C)C [Example 6, Bis(2-(isopropoxycarbonyloxy)benzoyl)peroxide] | 80 µg/mL (≈ 179 µM) | strong dose-dependent anti-inflammatory effect | stronger anti-inflammatory effect | 57.1% | 9.60 | 78.6% | 4.80 | 93.8% | 1.40 | – | – |
| CC(C)(C)OC(=O)Oc1ccccc1C(=O)OOC(=O)c1ccccc1 [Example 2, (2-(tert-Butoxycarbonyloxy)benzoyl)benzoyl peroxide] | 40 µg/mL (≈ 112 µM) | – | – | – | – | – | – | – | – | – | – |
| CC(C)(C)C(=O)Oc1ccccc1C(=O)OOC(=O)c1ccccc1 [Example 9, (2-(tert-Butyryloxy)benzoyl)benzoyl peroxide] | – | – | – | – | – | – | – | – | – | 320 µg/mL (≈ 935 µM) | – |
| O=C(OOC(=O)c1ccccc1)c1ccccc1 [BPO, Benzoyl peroxide, reference compound] | – | – | – | – | – | – | – | 21.4% and 27.8% | 17.60 and 20.80 | – | – |
| CCOC(=O)Oc1ccccc1C(=O)OOC(=O)c1ccccc1OC(=O)OCC [Example 3, Bis(2-(ethoxycarbonyloxy)benzoyl)peroxide] | 160 µg/mL (≈ 382 µM) | strong dose-dependent anti-inflammatory effect | – | 45.7% | 13.80 | 66.1% | 8.60 | 81.1% | 4.80 | – | – |
| CC(C)C(=O)Oc1ccccc1C(=O)OOC(=O)c1ccccc1 [Example 10, (2-(Isobutyryloxy)benzoyl)benzoyl peroxide] | 80 µg/mL (≈ 244 µM) | – | – | – | – | – | – | – | – | – | – |
| CCOC(=O)Oc1ccccc1C(=O)OOC(=O)c1ccccc1 [Example 1, (2-(Ethoxycarbonyloxy)benzoyl)benzoyl peroxide] | 80 µg/mL (≈ 242 µM) | dose-dependent anti-inflammatory effect | significantly superior | 13.9% | 24.80 | 29.9% | 20.20 | 53.5% | 13.40 | – | – |
| O=C(CC12CC3CC(CC(C3)C1)C2)Oc1ccccc1C(=O)OOC(=O)c1ccccc1 [Example 12, [2-(2-(Adamantan-1-yl)acetoxy)benzoyl]benzoyl peroxide] | 320 µg/mL (≈ 736 µM) | – | – | – | – | – | – | – | – | – | – |
| CC(C)OC(=O)Oc1ccccc1C(=O)OOC(=O)c1ccccc1 [Example 5, (2-(Isopropoxycarbonyloxy)benzoyl)benzoyl peroxide] | 40 µg/mL (≈ 116 µM) | – | stronger anti-inflammatory effect | 8.9% | 20.40 | 44.6% | 12.40 | 72.3% | 6.20 | – | significant anti-inflammatory effect |
